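Interpolation was linear, between the two tested concentrations surrounding the appropriate level; five concentrations were tested over 48 hours in 96-well plates. The concentration for 50% growth inhibition is given as GI50.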 Active and inactive are the calls of the source. No stated cut-off is given here; in the data, active = GI50 up to about 1.1 µM and inactive = higher. Where a SMILES comes first, the peptide text is derived from it. The star is where a group is joined. Cbz = O=C(OCc1ccccc1)*; OBn = c1ccc(CO*)cc1
Experiments:
Assay in all cases: inhibition of tumour cell growth, NCI panel, 48 h
A498 = system: A498
COLO 205 = system: COLO 205
EKVX = system: EKVX
HCT-116 = system: HCT-116
HCT-15 = system: HCT-15
HL-60 = system: HL-60
IGROV-1 = system: IGROV-1
KM12 = system: KM12
MOLT-4 = system: MOLT-4
Malme-3M = system: Malme-3M
NCI-H23 = system: NCI-H23
OVCAR-8 = system: OVCAR-8
PC-3 = system: PC-3
SK-MEL-2 = system: SK-MEL-2
SNB-75 = system: SNB-75
SR = system: SR
SW-620 = system: SW-620
UACC-62 = system: UACC-62
NCI-H460 = system: NCI-H460
OVCAR-4 = system: OVCAR-4

| SMILES | GI50 (A498) | GI50 (COLO 205) | GI50 (EKVX) | GI50 (HCT-116) | GI50 (HCT-15) [µM] | GI50 (HL-60) | GI50 (IGROV-1) | GI50 (KM12) | GI50 (MOLT-4) | GI50 (Malme-3M) | GI50 (NCI-H23) | GI50 (OVCAR-8) | GI50 (PC-3) | GI50 (SK-MEL-2) | GI50 (SNB-75) | GI50 (SR) | GI50 (SW-620) | GI50 (UACC-62) | GI50 (NCI-H460) | GI50 (OVCAR-4) |
| --- | --- | --- | --- | --- | --- | --- | --- | --- | --- | --- | --- | --- | --- | --- | --- | --- | --- | --- | --- | --- |
| COc1ccc(C(=O)/C=C/c2ccc(OCC(=O)O)cc2)cc1 | > 100 µM (inactive) | 70.3 µM (inactive) | > 100 µM (inactive) | 47.1 µM (inactive) | > 100 | > 100 µM (inactive) | > 100 µM (inactive) | 51.5 µM (inactive) | 8.57 µM (inactive) | 50.7 µM (inactive) | > 100 µM (inactive) | 74.3 µM (inactive) | > 100 µM (inactive) | 44.5 µM (inactive) | > 100 µM (inactive) | 13 µM (inactive) | 41.5 µM (inactive) | 52.1 µM (inactive) | – | – |
| S=C(/N=c1/sc(Nc2ccccc2)nc2sc3c(c12)CCCC3)Nc1ccccc1 | > 62.5 µM (inactive) | > 62.5 µM (inactive) | > 62.5 µM (inactive) | > 62.5 µM (inactive) | > 62.5 | > 62.5 µM (inactive) | > 62.5 µM (inactive) | > 62.5 µM (inactive) | > 62.5 µM (inactive) | > 62.5 µM (inactive) | > 62.5 µM (inactive) | – | > 62.5 µM (inactive) | > 62.5 µM (inactive) | – | > 62.5 µM (inactive) | > 62.5 µM (inactive) | > 62.5 µM (inactive) | > 62.5 µM (inactive) | > 62.5 µM (inactive) |
| O=C1/C(=C/c2cccc(Br)c2)CSC/C1=C\c1cccc(Br)c1 | – | 2.9 µM (inactive) | 5.68 µM (inactive) | 1.78 µM (inactive) | 2.51 | 1.92 µM (inactive) | 3.04 µM (inactive) | 1.99 µM (inactive) | 1.87 µM (inactive) | 1.92 µM (inactive) | 3.66 µM (inactive) | 1.9 µM (inactive) | 2.5 µM (inactive) | 3.08 µM (inactive) | – | 2 µM (inactive) | 2.73 µM (inactive) | 1.65 µM (inactive) | 2.57 µM (inactive) | 2.82 µM (inactive) |
| Cc1cccc(NC(=O)CC(=O)N2N=C(N3c4ccccc4Sc4ccccc43)CC2c2ccccc2)c1 (configuration not stated) | > 100 µM (inactive) | > 100 µM (inactive) | > 100 µM (inactive) | > 100 µM (inactive) | > 100 | > 100 µM (inactive) | > 100 µM (inactive) | > 100 µM (inactive) | > 100 µM (inactive) | – | > 100 µM (inactive) | > 100 µM (inactive) | > 100 µM (inactive) | > 100 µM (inactive) | > 100 µM (inactive) | > 100 µM (inactive) | > 100 µM (inactive) | > 100 µM (inactive) | > 100 µM (inactive) | > 100 µM (inactive) |
| COc1c(Sc2c(SCSc3cnc4ccccc4c3Sc3cnc4ccccc4c3OC)cnc3ccccc23)cnc2ccccc12 | – | > 100 µM (inactive) | 35.7 µM (inactive) | 46.5 µM (inactive) | 84.5 | 1.59 µM (inactive) | 8.13 µM (inactive) | > 100 µM (inactive) | 55.8 µM (inactive) | – | 54.8 µM (inactive) | 31.7 µM (inactive) | > 100 µM (inactive) | > 100 µM (inactive) | 21.7 µM (inactive) | 21.8 µM (inactive) | 31.6 µM (inactive) | 39.1 µM (inactive) | 98.2 µM (inactive) | 37.2 µM (inactive) |
| C[N+](C)([O-])Cc1cccc(NC(=O)c2ccc(C(=O)Nc3cccc(C[N+](C)(C)[O-])c3)cc2)c1 | – | > 100 µM (inactive) | > 100 µM (inactive) | > 100 µM (inactive) | > 100 | > 100 µM (inactive) | > 100 µM (inactive) | > 100 µM (inactive) | > 100 µM (inactive) | > 100 µM (inactive) | > 100 µM (inactive) | > 100 µM (inactive) | > 100 µM (inactive) | > 100 µM (inactive) | – | > 100 µM (inactive) | > 100 µM (inactive) | > 100 µM (inactive) | > 100 µM (inactive) | > 100 µM (inactive) |
| COc1cc(C(c2c(O)c3ccccc3oc2=O)c2c(O)c3ccccc3oc2=O)cc(Br)c1O | 15.9 µM (inactive) | 18.2 µM (inactive) | 18.8 µM (inactive) | 17.5 µM (inactive) | 17.7 | 27.7 µM (inactive) | 15.6 µM (inactive) | 17.5 µM (inactive) | 20.1 µM (inactive) | 16.8 µM (inactive) | 22.2 µM (inactive) | 17.3 µM (inactive) | 19.1 µM (inactive) | 23.8 µM (inactive) | 18.8 µM (inactive) | 14 µM (inactive) | 20.6 µM (inactive) | 16 µM (inactive) | – | 15.4 µM (inactive) |
| COC(=O)C(Cc1ccc(O)cc1)NC(=O)C(CC(=O)OCc1ccccc1)NC(=O)OCc1ccccc1 (configuration not stated) (Cbz-Asp(OBn)-Tyr-OMe; configuration not given here) | 20.6 µM (inactive) | 19.1 µM (inactive) | 23.8 µM (inactive) | 19.3 µM (inactive) | 18.3 | 25.6 µM (inactive) | 17.3 µM (inactive) | 22.6 µM (inactive) | 24.7 µM (inactive) | 41.1 µM (inactive) | 23.6 µM (inactive) | 20.5 µM (inactive) | 17.7 µM (inactive) | 19.2 µM (inactive) | 17.9 µM (inactive) | 22.8 µM (inactive) | 22.4 µM (inactive) | – | 12.4 µM (inactive) | – |
| COc1cccc(CCNC(=O)Cc2ccccc2CCO)c1 | > 100 µM (inactive) | > 100 µM (inactive) | > 100 µM (inactive) | > 100 µM (inactive) | > 100 | > 100 µM (inactive) | > 100 µM (inactive) | > 100 µM (inactive) | > 100 µM (inactive) | – | > 100 µM (inactive) | > 100 µM (inactive) | > 100 µM (inactive) | > 100 µM (inactive) | > 100 µM (inactive) | > 100 µM (inactive) | > 100 µM (inactive) | > 100 µM (inactive) | > 100 µM (inactive) | > 100 µM (inactive) |
| COc1ccc(CNC(=O)[C@H](Cc2ccc(O)cn2)NC(C)=O)cc1 | > 100 µM (inactive) | > 100 µM (inactive) | 87.7 µM (inactive) | 89.3 µM (inactive) | > 100 | > 100 µM (inactive) | > 100 µM (inactive) | > 100 µM (inactive) | > 100 µM (inactive) | – | > 100 µM (inactive) | – | > 100 µM (inactive) | > 100 µM (inactive) | – | > 100 µM (inactive) | > 100 µM (inactive) | > 100 µM (inactive) | > 100 µM (inactive) | > 100 µM (inactive) |
| CC1(C)N=c2c(ncn2CCCO)=C(C(N)=O)N1 | > 100 µM (inactive) | > 100 µM (inactive) | > 100 µM (inactive) | > 100 µM (inactive) | > 100 | > 100 µM (inactive) | > 100 µM (inactive) | > 100 µM (inactive) | – | > 100 µM (inactive) | > 100 µM (inactive) | > 100 µM (inactive) | > 100 µM (inactive) | – | 60.4 µM (inactive) | > 100 µM (inactive) | > 100 µM (inactive) | > 100 µM (inactive) | > 100 µM (inactive) | > 100 µM (inactive) |
| COc1ccc(C(=O)/C=C/c2ccc(OCCCCCCCCCCOc3ccc(/C=C/C(=O)c4ccc(OC)cc4)cc3)cc2)cc1 | – | > 100 µM (inactive) | > 100 µM (inactive) | > 100 µM (inactive) | > 100 | > 100 µM (inactive) | > 100 µM (inactive) | > 100 µM (inactive) | > 100 µM (inactive) | – | – | > 100 µM (inactive) | > 100 µM (inactive) | > 100 µM (inactive) | 69.7 µM (inactive) | > 100 µM (inactive) | > 100 µM (inactive) | > 100 µM (inactive) | > 100 µM (inactive) | > 100 µM (inactive) |
| CN(C)CCCc1cccc2[nH]c3c(c12)CN(C)CC3 | – | 63.4 µM (inactive) | > 100 µM (inactive) | > 100 µM (inactive) | 80 | 56.9 µM (inactive) | 73.1 µM (inactive) | > 100 µM (inactive) | 75 µM (inactive) | 95.9 µM (inactive) | > 100 µM (inactive) | > 100 µM (inactive) | 67.1 µM (inactive) | > 100 µM (inactive) | 78 µM (inactive) | 27.4 µM (inactive) | > 100 µM (inactive) | > 100 µM (inactive) | > 100 µM (inactive) | > 100 µM (inactive) |
| O=C1/C(=C/c2ccc(Cl)cc2)CSC/C1=C\c1ccc(Cl)cc1 | – | 3.02 µM (inactive) | 22.9 µM (inactive) | 1.76 µM (inactive) | 13.9 | 1.34 µM (inactive) | 1.82 µM (inactive) | 1.96 µM (inactive) | 2.61 µM (inactive) | 10.3 µM (inactive) | 2.9 µM (inactive) | 3.54 µM (inactive) | 3.52 µM (inactive) | 14.5 µM (inactive) | – | 2.69 µM (inactive) | 3.15 µM (inactive) | 1.51 µM (inactive) | 3.32 µM (inactive) | 3.71 µM (inactive) |
| Cc1ncc([N+](=O)[O-])n1CCNC(=O)CCCCCn1ccnc1[N+](=O)[O-] | > 100 µM (inactive) | 43.6 µM (inactive) | – | > 100 µM (inactive) | > 100 | > 100 µM (inactive) | > 100 µM (inactive) | > 100 µM (inactive) | > 100 µM (inactive) | > 100 µM (inactive) | > 100 µM (inactive) | > 100 µM (inactive) | > 100 µM (inactive) | > 100 µM (inactive) | > 100 µM (inactive) | > 100 µM (inactive) | > 100 µM (inactive) | > 100 µM (inactive) | > 100 µM (inactive) | – |

From ChEMBL document CHEMBL1201862, “PubChem BioAssay data set” (2004)
